From patent publication US20150031686A1, “PHENYL-OXAZOLYL DERIVATIVES, PREPARATION METHOD THEREOF, AND RELATED APPLICATION OF THE PHENYL-OXAZOLYL DERIVATIVES AS AN IMPDH INHIBITOR” (INSTITUTE OF MEDICINAL BIOTECHNOLOGY, CHINESE ACADEMY OF …, priority 2012, published 2015)
≈ marks a conversion by molar mass, not a printed value.

Test system: Coxsackie virus type B3 (COX-B3)
Experiment: Anti-Coxsackie virus type B3 (COX-B3) activity, CPE in Vero cells
Format: cell-based
Conditions: Reed-Muench
Description: With Vero (African green monkey kidney) cells as viral hosts, inhibitory effects of the compounds of present invention on the grades of pathological lesions by coxsackievirus B3 (COX-B3), B6 (COX-B6) viruses in Vero cells were determined. The measured results of viral inhibitory activity of the compounds are shown in Table 3 and Table 4; wherein RBV is the control drug ribavirin. The inhibitory activities of the measured compounds against coxsackievirus B3, B6 were stronger than the control.
Screening of Anti-B3, B6 Type Coxsackie Viruses (COX-B3, COX-B6) Activity of the Samples
Prepare stock solutions of COX-B3 (or COX-B6) virus strains as well as tested compounds in DMSO before use. Before tests, dilute the stock solution with culture solution into a certain concentration and then dilute 3 times to make a total of eight dilutions. Use ribavirin (RBV) as positive control. Test procedures are as follows: seed Vero cells into 96-well culture plates, infect with 10^−5 Coxsackie virus of B3 (or B6) type, 24 hours later; adsorb subsequently for 2 hours, then discard the virus solution, add in the sample compounds and the positive control according to the abovementioned dilutions, set cell control wells and virus control wells simultaneously. When the cytopathic effect (CPE) of cells in the virus control wells reach 4+, observe CPE of the cells in each group. Use Reed-Muench method to calculate 50% inhibitory concentration (IC50) of the sample compounds against coxsackie virus B3 (or B6) type.

Row | Structure (SMILES) | IC50 | IC50, anti-Coxsackie virus type B3 (COX-B3)
1 | COc1cc(NCc2nc3ccccc3s2)ccc1-c1cnco1 [Compound 8, N-(benzothiazol-2-ylmethyl)-3-methoxy-4-(oxazol-5-yl) aniline] | 0.45 µg/mL (≈ 1.33 µM) | 
2 | COc1cc(N(C)Cc2csc(C)c2)ccc1-c1cnco1 [Compound 12, N-methyl-N-(5-methylthien-3-ylmethyl)-3-methoxy-4-(oxazol-5-yl) aniline] | 0.23 µg/mL (≈ 0.732 µM) | 
3 | C#CCN(Cc1cc(CC)sc1C)c1ccc(-c2cnco2)c(OC)c1 [Compound 13, N-(5-ethyl-2-methylthien-3-ylmethyl)-N-(3-methoxy-4-oxazole-5-phenyl) propyn-2-ylamine] |  | 0.30 µg/mL (≈ 0.819 µM)
4 | COc1cc(NCc2csc(Cl)c2)ccc1-c1cnco1 [Compound 14, N-(5-chlorothien-3-ylmethyl)-3-methoxy-4-(oxazol-5-yl) aniline] | 0.44 µg/mL (≈ 1.37 µM) | 
5 | COc1cc(NCc2csc(Br)c2)ccc1-c1cnco1 [Compound 15, N-(5-bromothien-3-ylmethyl)-3-methoxy-4-(oxazol-5-yl) aniline] | 0.46 µg/mL (≈ 1.26 µM) | 
6 | COc1cc(NCc2csc(-c3ccccc3)c2)ccc1-c1cnco1 [Compound 16, N-(5-phenylthien-3-ylmethyl)-3-methoxy-4-(oxazol-5-yl) aniline] | 0.45 µg/mL (≈ 1.24 µM) | 
7 | COc1cc(NCc2cncn2C)ccc1-c1cnco1 [Compound 17, N-(1-methyl-1H-imidazol-5-ylmethyl)-3-methoxy-4-(oxazol-5-yl) aniline] | 2.56 µg/mL (≈ 9 µM) | 
8 | COc1cc(CNc2ccc(-c3cnco3)c(OC)c2)cs1 [Compound 18, N-(5-methoxy-thien-3-ylmethyl)-3-methoxy-4(oxazol-5-yl) aniline] | 0.25 µg/mL (≈ 0.79 µM) | 
9 | COc1cc(/N=C/c2csc(C)c2)ccc1-c1cnco1 [Compound 19, N-(5-methylthien-3-ylmethylene)-3-methoxy-4-(oxazol-5-yl) aniline] | 12.8 µg/mL (≈ 43 µM) | 
10 | COc1ccc(-c2cnco2)cc1NCc1c(C)noc1C [Compound 23, N-(3,5-dimethylisoxazol-4-ylmethyl)-2-methoxy-5-(oxazol-5-yl) aniline] | 0.76 µg/mL (≈ 2.54 µM) | 
11 | COc1ccc(-c2cnco2)cc1NCc1ccc(CCl)s1 [Compound 24, N-(5-chloromethylthien-2-ylmethyl)-2-methoxy-5-(oxazol-5-yl) aniline] | 0.57 µg/mL (≈ 1.7 µM) | 
12 | COc1ccc(-c2cnco2)cc1NCc1ccc(CBr)s1 [Compound 25, N-(5-bromomethylthien-2-ylmethyl)-2-methoxy-5-(oxazol-5-yl) aniline] | 0.53 µg/mL (≈ 1.4 µM) | 
13 | COc1ccc(-c2cnco2)cc1NCc1ccc(-c2ccccc2)s1 [Compound 26, N-(5-phenylthien-2-ylmethyl)-2-methoxy-5-(oxazol-5-yl) aniline] | 0.57 µg/mL (≈ 1.57 µM) | 
14 | COc1ccc(-c2cnco2)cc1NCc1c(C)nn(C)c1Cl [Compound 27, N-(5-chloro-1,3-dimethyl-1H-pyrazol-4-ylmethyl)-2-methoxy-5-(oxazol-5-yl) aniline] | 1.47 µg/mL (≈ 4.42 µM) | 
15 | COc1ccc(-c2cnco2)cc1NCc1cnn(-c2ccccc2)n1 [Compound 28, N-(2-phenyl-2H-1,2,3-triazol-4-ylmethyl)-(2-methoxy-5-oxazole-5-yl) aniline] | 1.23 µg/mL (≈ 3.54 µM) | 
16 | COc1ccc(-c2cnco2)cc1/N=C/c1cc(Cl)cs1 [Compound 29, N-(4-chlorothien-2-ylmethylene)-2-methoxy-5-(oxazol-5-yl)-aniline] | 10.7 µg/mL (≈ 33.5 µM) | 
17 | COc1ccc(-c2cnco2)cc1NCc1cc2cc(Cl)ccc2s1 [Compound 30, N-(5-chlorobenzothien-2-ylmethyl)-2-methoxy-5-(oxazol-5-yl) aniline] | 0.54 µg/mL (≈ 1.46 µM) | 
18 | COc1ccc(-c2cnco2)cc1NCc1ccsc1 [Compound 31, N-(thien-3-ylmethyl)-2-methoxy-5-(oxazol-5-yl) aniline] | 0.88 µg/mL (≈ 3.07 µM) | 
19 | CCC(=O)N(Cc1csc(C)c1)c1cc(-c2cnco2)ccc1OC [Compound 32] | 0.68 µg/mL (≈ 1.91 µM) | 
20 | COc1ccc(-c2cnco2)cc1NCC1CCN(C)CC1 [Compound 33, N-(2-methoxy-5-oxazol-5-ylphenyl)-1-methylpiperidin-4-yl methylamine] | 0.64 µg/mL (≈ 2.12 µM) | 
21 | COc1ccc(-c2cnco2)cc1NCc1csc(Cl)c1 [Compound 34, N-(5-chlorothien-3-ylmethyl)-2-methoxy-5-(oxazol-5-yl) aniline] | 0.57 µg/mL (≈ 1.78 µM) | 
22 | COc1ccc(-c2cnco2)cc1NCc1csc(Br)c1 [Compound 35, N-(5-bromothien-3-ylmethyl)-2-methoxy-5-(oxazol-5-yl) aniline] | 0.57 µg/mL (≈ 1.56 µM) | 
23 | COc1ccc(-c2cnco2)cc1NCc1csc(-c2ccccc2)c1 [Compound 36, N-(5-phenylthien-3-ylmethyl)-2-methoxy-5-(oxazol-5-yl) aniline] | 0.59 µg/mL (≈ 1.63 µM) | 
24 | COc1ccc(-c2cnco2)cc1NCC1CCOCC1 [Compound 37, N-(tetrahydropyran-4-ylmethyl)-2-methoxy-5-oxazol-5-yl aniline] | 0.63 µg/mL (≈ 2.18 µM) | 

Row | Structure (SMILES) | IC50 | IC50, anti-Coxsackie virus type B3 (COX-B3)
25 | COc1ccc(-c2cnco2)cc1NCc1cccnn1 [Compound 38, N-(pyridazin-3-yl-methyl)-2-methoxy-5-oxazol-5-yl aniline] | 0.88 µg/mL (≈ 3.12 µM) | 
26 | COc1ccc(-c2cnco2)cc1/N=C/c1ccsc1 [Compound 39, N-(thien-3-ylmethylene)-2-methoxy-5-(oxazol-5-yl)-aniline] | 11.1 µg/mL (≈ 39.1 µM) | 
27 | COc1ccc(-c2cnco2)cc1NCc1csc2c(C)c(Br)ccc12 [Compound 40, N-(6-bromo-7-methyl-benzothien-3-ylmethyl)-2-methoxy-5-oxazol-5-yl aniline] | 0.26 µg/mL (≈ 0.606 µM) | 
28 | COc1cc(NCc2c(Cl)nc(Cl)nc2Cl)ccc1-c1cnco1 [Compound 43, N-(2,4,6-trichloropyrimidin-5-ylmethyl)-3-methoxy-4-(oxazol-5-yl) aniline] | 1.03 µg/mL (≈ 2.67 µM) | 
29 | COc1cc(NCc2ncc(Cl)nc2Cl)ccc1-c1cnco1 [Compound 44, N-(3,5-dichloroperazin-2-ylmethyl)-3-methoxy-4-(oxazol-5-yl) aniline] | 0.69 µg/mL (≈ 1.96 µM) | 
30 | COc1ccc(-c2cnco2)cc1NCc1ccc(Br)o1 [Compound 45, N-(5-bromofuran-2-ylmethyl)-2-methoxy-5-(oxazol-5-yl) aniline] | 0.88 µg/mL (≈ 2.52 µM) | 
31 | COc1ccc(-c2cnco2)cc1NCc1ccc(-c2cccc(Cl)c2)o1 [Compound 46, N-[5-(3-chlorophenyl)-furan-2-ylmethyl]-2-methoxy-5-(oxazol-5-yl) aniline] | 0.76 µg/mL (≈ 2 µM) | 
32 | COc1cc(NCc2ccc(C(=O)Nc3cc(OC)c(OC)c(OC)c3)o2)ccc1-c1cnco1 [Compound 47, N-2-(3,4,5-trimethoxyphenylaminocarbonyl) furan-5-ylmethyl 3-methoxy-4-(oxazol-5-yl)aniline] | 0.56 µg/mL (≈ 1.17 µM) | 
33 | COCc1ccc(CNc2cc(-c3cnco3)ccc2OC)o1 [Compound 48, N-(5-methoxymethylfuran-2-ylmethyl)-2-methoxy-5-(oxazol-5-yl) aniline] | 0.5 µg/mL (≈ 1.59 µM) | 
34 | COc1ccc(-c2cnco2)cc1NCc1coc2ccccc12 [Compound 50, N-(benzofuran-3-ylmethyl)-2-methoxy-5-(oxazol-5-yl) aniline] | 0.46 µg/mL (≈ 1.44 µM) | 
35 | COc1cc(NCc2cccn2C)ccc1-c1cnco1 [Compound 51, N-(1-methyl-1H-pyrrol-2-ylmethyl)-3-methoxy-4-(oxazol-5-yl) aniline] | 2.47 µg/mL (≈ 8.72 µM) | 
36 | COc1cc(-c2cnco2)c(NCc2ccnc3ccccc23)cc1O [Compound 58, 2-methoxy-4-(oxazol-5-yl)-5-[(quinolin-4-ylmethyl)-amino] phenol] | 3.22 µg/mL (≈ 9.27 µM) | 
37 | COc1ccc(-c2cnco2)cc1N [Compound 67, 2-methoxy-5-(oxazol-5-yl) aniline] | 1.88 µg/mL (≈ 9.88 µM) | 
38 | COc1cc(NS(=O)(=O)c2ccc(C)cc2)ccc1-c1cnco1 [Compound 69] | 0.98 µg/mL (≈ 2.85 µM) | 
39 | COc1cc(NCCCS(=O)(=O)O)ccc1-c1cnco1 [Compound 70, 3-[3-methoxy-4-(oxazol-5-yl)-anilino]-1-propanesulfonic acid] | 155 µg/mL (≈ 497 µM) | 
40 | COc1cc(NCCc2ccc(C)s2)ccc1-c1cnco1 [Compound 72, N-[2-(5-methylthien-2-yl)-ethyl]-3-methoxy-4-(oxazol-5-yl) aniline] | 0.44 µg/mL (≈ 1.4 µM) | 
41 | COc1cc(NCCc2ccc(Br)s2)ccc1-c1cnco1 [Compound 73, N-[2-(5-bromothien-2-yl)-ethyl]-3-methoxy-4-(oxazol-5-yl) aniline] | 0.35 µg/mL (≈ 0.923 µM) | 
42 | COc1cc(NCCc2noc3ccccc23)ccc1-c1cnco1 [Compound 74, N-(1,2-benzisoxazol-3-ylethyl)-3-methoxy-4-(oxazol-5-yl) aniline] | 0.63 µg/mL (≈ 1.88 µM) | 
43 | COc1cc(NCc2cccc3c2oc2ccccc23)ccc1-c1cnco1 [Compound 75, N-(dibenzofuran-4-ylmethyl)-3-methoxy-4-(oxazol-5-yl) aniline] | 0.45 µg/mL (≈ 1.21 µM) | 
44 | COc1cc(CNCc2ccc(C)s2)ccc1-c1cnco1 [Compound 76, N-(5-methylthien-2-ylmethyl)-3-methoxy-4-(oxazol-5-yl) benzylamine] | 0.24 µg/mL (≈ 0.763 µM) | 
45 | COc1cc(CNCc2ccc(Cl)s2)ccc1-c1cnco1 [Compound 77, N-(5-chlorothien-2-ylmethyl)-3-methoxy-4-(oxazol-5-yl) benzylamine] | 0.35 µg/mL (≈ 1.05 µM) | 
46 | COc1cc(CNCc2cccc3nonc23)ccc1-c1cnco1 [Compound 78, N-(benzo[1,2,5]oxadiazol-4-ylmethyl)-3-methoxy-4(oxazol-5-yl) benzylamine] | 0.36 µg/mL (≈ 1.07 µM) | 
47 | Cc1ccc(-c2cnco2)cc1NCc1c(O)ccc2ccccc12 [Compound 79, 1-(2-methyl-5-oxazol-5-ylanilino) methyl-naphthol-2] | 0.35 µg/mL (≈ 1.06 µM) | 
